{"source": "patent US20220267478A1", "about": "“PEPTIDE-LOADED CARRIER SYSTEMS AND USES THEREOF” (Academia Sinica, priority 2019, published 2022)", "key": {"[1]": {"settings": "from Vasievich et al.; cited from earlier work"}, "[2]": {"test": "Aqueous solubility of peptides", "settings": "for solubility / water solubility (in words): water; for Solubility of unmodified peptide epitope: Table 1"}, "JAWSII dendritic cells": {"test_system": "JAWSII dendritic cells", "test": "Dendritic cell surface marker expression after nanoparticle incubation and LPS stimulation", "assay_type": "cell-based", "settings": "FIG. 24", "protocol": "FIG. 24 includes bar graphs showing the percentage of JAWSII dendritic cells expressing CD80 (upper left panel), CD86 (upper right panel), MHC I (bottom left panel) and MHC II (bottom right panel) assessed by flow cytometric analysis after the cells were co-cultured with the indicated aspirin/peptide formulations.\nDendritic cells were incubated with nanoparticles co-encapsulating adaptor modified OTII peptide and aspirin or adaptor-modified peptides only for 6 h, and then were stimulated with low dose of lipopolysaccharide (“LPS”). Dendritic cell phenotypes were observed 24 h later. See the experimental scheme in FIG. 23."}, "CD8 T cells": {"test_system": "CD8 T cells", "test": "Trp2-specific CD8 T cell response in splenocytes of vaccinated mice (intracellular IFN-γ staining, flow cytometry)", "assay_type": "in vivo, C57BL/6 mice", "settings": "peptide in nanoparticles with cdGMP; FIG. 10", "protocol": "The immunogenicity of modified Trp2 peptides was tested by encapsulating them in the aqueous core of hollow thin-shell nanoparticles together with a fixed amount of stimulator of interferon genes (STING) agonist cyclic di-GMP (cdGMP) and injecting them into mice.\nThe modified Trp2 peptides were as follows: (i) D4-Trp2-D5, (ii) Trp2-D5, (iii) D5-Trp2, (iv) D2G3-Trp2-G3D2, (v) Trp2-G3D3, and (vi) D3G3-Trp2. As Trp2 itself cannot be incorporated into the aqueous core due to its hydrophobicity, a longer Trp2 peptide, namely, Trp2168-195 was encapsulated as a positive control.\nNanoparticles each containing an equivalent dose of one of the Trp2 peptides and cdGMP were prepared as described in Example 1 above and administered to C57BL/6 mice on day 0 and day 21 by subcutaneous injection at the base of the tail. On day 28, splenocytes of the vaccinated mice were isolated and examined for Trp2-specific CD8 T cell immune responses. Briefly, splenocytes from each mouse were challenged with Trp2 peptide and expression of IFN-γ in CD8 T cells was measured by intracellular cytokine staining and flow cytometry."}}, "note": "Ends that are not written are not given here.", "data": [{"compound": "CC(C)C[C@H](NC(=O)[C@H](Cc1c[nH]c2ccccc12)NC(=O)[C@@H](NC(=O)[C@H](Cc1ccccc1)NC(=O)[C@H](Cc1ccccc1)NC(=O)[C@H](CC(=O)O)NC(=O)[C@H](Cc1ccc(O)cc1)NC(=O)[C@@H](NC(=O)[C@@H](N)CO)C(C)C)C(C)C)C(=O)O", "note": "[Trp2, SVYDFFVWL]", "values": [{"measurement": "maximum solubility in water", "setting": "[1]", "result": 0.06, "unit": "mM"}]}, {"compound": "DDDGGGSIINFEKL [D3G3-OVA]", "values": [{"measurement": "solubility", "setting": "[2]", "result": 50, "unit": "mM"}]}, {"compound": "DDDGGGSVYDFFVWL [D3G3-Trp2, DDDGGGSVYDFFVWL]", "values": [{"measurement": "solubility fold higher than the Trp2 peptide", "setting": "[2]; H2O", "result": "over 500 fold"}, {"measurement": "solubility", "setting": "[2]", "result": "> 30", "unit": "mM"}]}, {"compound": "AQLANDVVL [Resp1, AQLANDVVL]", "values": [{"measurement": "Solubility of unmodified peptide epitope", "setting": "[2]", "result": "hydrophobic"}, {"measurement": "water solubility (in words)", "setting": "[2]", "result": "poorly soluble"}]}, {"compound": "CC[C@H](C)[C@H](NC(=O)[C@@H](NC(=O)[C@@H](N)CO)[C@@H](C)CC)C(=O)N[C@@H](CC(N)=O)C(=O)N[C@@H](Cc1ccccc1)C(=O)N[C@@H](CCC(=O)O)C(=O)N[C@@H](CCCCN)C(=O)N[C@@H](CC(C)C)C(=O)O", "note": "[OVA257-264, SIINFEKL]", "values": [{"measurement": "Solubility of unmodified peptide epitope", "setting": "[2]", "result": "hydrophilic"}, {"measurement": "solubility", "setting": "[2]", "result": 2, "unit": "mM"}]}, {"compound": "SIIVFNLL [Dpagt1, SIIVFNLL]", "values": [{"measurement": "Solubility of unmodified peptide epitope", "setting": "[2]", "result": "hydrophobic"}, {"measurement": "water solubility (in words)", "setting": "[2]", "result": "poorly soluble"}]}, {"compound": "QVYSLIRPNENPAHK [influenza virus nucleoprotein NP311, QVYSLIRPNENPAHK]", "values": [{"measurement": "Solubility of unmodified peptide epitope", "setting": "[2]", "result": "hydrophilic"}]}, {"compound": "KVPRNQDWL [gp100, KVPRNQDWL]", "values": [{"measurement": "Solubility of unmodified peptide epitope", "setting": "[2]", "result": "hydrophilic"}]}, {"compound": "TAYRYHLL [Trp1m, TAYRYHLL]", "values": [{"measurement": "Solubility of unmodified peptide epitope", "setting": "[2]", "result": "hydrophilic"}]}, {"compound": "ASMTNMELM [Adpgk, ASMTNMELM]", "values": [{"measurement": "Solubility of unmodified peptide epitope", "setting": "[2]", "result": "hydrophobic"}, {"measurement": "water solubility (in words)", "setting": "[2]", "result": "poorly soluble"}]}, {"compound": "ISQAVHAAHAEINEAGR [OT-II, ISQAVHAAHAEINEAGR]", "values": [{"measurement": "Solubility of unmodified peptide epitope", "setting": "[2]", "result": "hydrophilic"}]}, {"compound": "lipopolysaccharide [LPS]", "values": [{"measurement": "expression of CD80, CD86, MHC I, and MHC II compared to vehicle control", "setting": "JAWSII dendritic cells", "result": "increased expression"}]}, {"compound": "Trp2168-195: longer Trp2 peptide containing sequences flanking the target epitope 180-188; positive control", "values": [{"measurement": "CD8+ T cell response, fold weaker compared to D3G3-Trp2", "setting": "CD8 T cells", "result": "~20", "unit": "fold"}]}, {"compound": "FQDAYNAAGGHNAVF [Mycobacterium tuberculosis p25, FQDAYNAAGGHNAVF]", "values": [{"measurement": "Solubility of unmodified peptide epitope", "setting": "[2]", "result": "hydrophobic"}]}]}
